Assay results published in patent publication US20150272939A1, “Identification of Small Molecule Inhibitors of Jumonji AT-Rich Interactive Domain 1A (JARID1A) and 1B (JARID1B) Histone Demethylase” (Yale University, priority 2012, published 2015).
Counter-ions that a name gives are not always drawn. Like-named read-outs stand apart in the source and are kept apart here.

Tests used:
[1] = AlphaScreen counterscreen against bio-H3K4me2 peptide in the absence of enzyme (artifact signal); conditions: for Artifact Signal (percent): effect of the compound when incubated with bio-H3K4me2 peptide (counterscreen, no enzyme); for Artifact signal: effect of the compound when it is incubated with bio-H3K4me2 peptide: counterscreen, no enzyme;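 as to all read-outs here: counterscreen run without enzyme against bio-H3K4me2 peptide to remove false positive hits from the JARID1 demethylase AlphaScreen screen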
[2] = biological target: T1, JARID1B (Homo sapiens, UniProt Q9UGL1); assay: FLAG-JARID1B histone demethylase assay with AlphaScreen detection (HTS and dose response); format: biochemical; conditions: for Assay − Artifact Signal (percent): assay signal minus artifact signal; for inhibition at 20 µM: high-throughput screen, compound 20 μM, read-out: Inhibitory effect (percent); for Assay Signal (percent) / Validation result of HTS active: effect of the compound in the JARID1B AlphaScreen demethylase assay: validation of HTS actives; for Assay Signal (percent): effect of compound in JARID1B AlphaScreen assay; for Validation result of HTS active: effect of the compound in the JARID1B AlphaScreen demethylase assay: total signal before subtraction of artifact signal;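 as to Assay Signal (percent): compound tested at 20 µM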;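 as to Assay − Artifact Signal (percent): compound tested at 20 µM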;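 as to all read-outs here: FLAG-tagged JARID1B at 4 nM acting on a biotinylated H3K4me3 peptide, demethylation read by AlphaScreen luminescence, with hits checked against bio-H3K4me2 without enzyme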
T1 construct: The FLAG tagged full length JARID1B enzyme was expressed in Sf21 insect cells using FLAG-JARID1B baculoviruses; FLAG (N); made in house; host or cells: Sf21 insect cells (baculovirus)
T1 sequence (Q9UGL1 whole entry): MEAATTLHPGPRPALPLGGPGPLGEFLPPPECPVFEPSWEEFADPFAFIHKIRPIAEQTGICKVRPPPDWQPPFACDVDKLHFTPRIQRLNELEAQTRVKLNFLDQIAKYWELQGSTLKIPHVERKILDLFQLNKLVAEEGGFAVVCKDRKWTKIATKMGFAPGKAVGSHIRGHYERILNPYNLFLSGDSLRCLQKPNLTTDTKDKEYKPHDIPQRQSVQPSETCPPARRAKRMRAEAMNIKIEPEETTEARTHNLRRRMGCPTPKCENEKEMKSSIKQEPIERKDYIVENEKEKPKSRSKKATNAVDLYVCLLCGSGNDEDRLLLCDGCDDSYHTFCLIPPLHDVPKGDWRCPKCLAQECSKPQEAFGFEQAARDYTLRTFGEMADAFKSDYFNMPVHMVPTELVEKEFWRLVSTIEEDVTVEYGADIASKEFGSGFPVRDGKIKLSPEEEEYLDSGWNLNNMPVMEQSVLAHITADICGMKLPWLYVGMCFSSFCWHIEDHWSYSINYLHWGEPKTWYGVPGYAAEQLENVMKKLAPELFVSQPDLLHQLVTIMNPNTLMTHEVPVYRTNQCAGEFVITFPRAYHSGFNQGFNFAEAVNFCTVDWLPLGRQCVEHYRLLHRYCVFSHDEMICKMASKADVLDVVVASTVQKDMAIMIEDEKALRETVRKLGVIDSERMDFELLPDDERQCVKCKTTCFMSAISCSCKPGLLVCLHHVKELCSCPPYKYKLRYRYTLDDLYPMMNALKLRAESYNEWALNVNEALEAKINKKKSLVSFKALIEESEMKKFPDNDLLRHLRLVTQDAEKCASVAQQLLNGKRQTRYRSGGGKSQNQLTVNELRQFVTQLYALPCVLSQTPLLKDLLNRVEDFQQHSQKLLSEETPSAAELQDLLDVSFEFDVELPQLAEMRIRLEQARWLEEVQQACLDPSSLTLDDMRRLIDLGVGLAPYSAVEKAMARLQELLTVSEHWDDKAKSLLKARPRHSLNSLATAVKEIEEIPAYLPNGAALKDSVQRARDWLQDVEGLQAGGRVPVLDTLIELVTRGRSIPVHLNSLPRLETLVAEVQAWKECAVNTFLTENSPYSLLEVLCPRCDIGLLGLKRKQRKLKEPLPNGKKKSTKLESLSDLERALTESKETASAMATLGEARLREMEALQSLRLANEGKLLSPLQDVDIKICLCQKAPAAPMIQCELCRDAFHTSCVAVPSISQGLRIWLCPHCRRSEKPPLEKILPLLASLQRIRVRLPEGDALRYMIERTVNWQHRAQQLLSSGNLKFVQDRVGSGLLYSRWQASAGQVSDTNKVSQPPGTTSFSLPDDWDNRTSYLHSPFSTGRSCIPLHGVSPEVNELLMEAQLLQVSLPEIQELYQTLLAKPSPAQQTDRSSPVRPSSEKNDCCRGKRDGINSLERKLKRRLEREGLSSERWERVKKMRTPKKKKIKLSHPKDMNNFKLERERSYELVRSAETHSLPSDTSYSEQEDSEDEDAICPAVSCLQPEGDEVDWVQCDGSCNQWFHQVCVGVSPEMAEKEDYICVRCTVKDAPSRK

[3] = standard demethylase conditions (10 μM α-KG, 50 μM Fe (II))

Artifact Signal (percent) [1]	Assay − Artifact Signal (percent) [2]	inhibition at 20 µM [2, 3]	Assay Signal (percent) [2]	Artifact signal: effect of the compound when it is incubated with bio-H3K4me2 peptide [1]	Validation result of HTS active: effect of the compound in the JARID1B AlphaScreen demethylase assay [2]	inhibition at 20 µM ([2]; IDs marked *: additional hits under reaction condition with 1 mM α-KG)	SMILES
−0.52%	49.49%	34%	48.97%				Fc1cccc(Cl)c1CNn1cnnc1S [YU146768]
48.19%	16.90%	70%	65.09%				Cc1cccc(NC(c2ccncc2)c2ccc3cccnc3c2O)c1 (centres unmarked) [YU172170]
		37%		−4.49	2.93		CCCc1ccc(OC(=O)c2cc3ccccc3oc2=O)cc1 [YU151027]
−4.84%	96.89%	88.7%	92.06%				CC(=O)NNC(=O)c1ccncc1 [YU129955]
3.41%	69.09%	75.9%	72.51%				CC(C)NNC(=O)c1ccncc1 [YU034066, IPRONIAZID SULFATE, reference compound]
				99.80	105.15		O=C(OC[C@H]1O[C@@H](OC(=O)c2cc(O)c(O)c(OC(=O)c3cc(O)c(O)c(O)c3)c2)[C@H](OC(=O)c2cc(O)c(O)c(OC(=O)c3cc(O)c(O)c(O)c3)c2)[C@@H](OC(=O)c2cc(O)c(O)c(OC(=O)c3cc(O)c(O)c(O)c3)c2)[C@@H]1OC(=O)c1cc(O)c(O)c(OC(=O)c2cc(O)c(O)c(O)c2)c1)c1cc(O)c(O)c(OC(=O)c2cc(O)c(O)c(O)c2)c1 (stereo in doubt) [YU153507, TANNIC ACID, reference compound]
3.44%	17.03%	36.1%	20.47%				O=S(=O)(NN1CCOCC1)c1ccc(Cl)cc1 [YU148050]
				−4.67	−19.45	43.2%	CN[C@@H]1[C@H](O[C@H]2O[C@H](CO)[C@@H](N)[C@H](O)[C@H]2O)O[C@H]2C[C@@H](N)[C@H](O[C@@H]3[C@H](O)[C@@H](O)[C@H](N)C[C@@H]3N)O[C@@H]2[C@@H]1O (stereo in doubt) [YU155086, APRAMYCIN, reference compound]
		99%		0.22	6.08		COc1ccccc1NC(=O)COc1ccc(CO)cc1Cl [YU152649]
		105%		99.54	104.83		O=C(OC[C@H]1O[C@@H](OC(=O)c2cc(O)c(O)c(OC(=O)c3cc(O)c(O)c(O)c3)c2)[C@H](OC(=O)c2cc(O)c(O)c(OC(=O)c3cc(O)c(O)c(O)c3)c2)[C@@H](OC(=O)c2cc(O)c(O)c(OC(=O)c3cc(O)c(O)c(O)c3)c2)[C@@H]1OC(=O)c1cc(O)c(O)c(OC(=O)c2cc(O)c(O)c(O)c2)c1)c1cc(O)c(O)c(OC(=O)c2cc(O)c(O)c(O)c2)c1 (stereo in doubt) [YU034398, TANNIC ACID, reference compound]
		88.8%		5.31	10.40		Cn1cnc([N+](=O)[O-])c1Sc1[nH]cnc2ncnc1-2 [YU033698, AZATHIOPRINE, reference compound]

SMILES	Artifact Signal (percent) [1]	Assay − Artifact Signal (percent) [2]	inhibition at 20 µM [2, 3]	Assay Signal (percent) [2]	Artifact signal: effect of the compound when it is incubated with bio-H3K4me2 peptide [1]	Validation result of HTS active: effect of the compound in the JARID1B AlphaScreen demethylase assay [2]	inhibition at 20 µM ([2]; IDs marked *: additional hits under reaction condition with 1 mM α-KG)
COc1cc(NC(C)CCCN)c2ncccc2c1 (centres unmarked) [YU033971, PRIMAQUINE DIPHOSPHATE, reference compound]	−4.11%	50.60%	57.5%	46.49%			
O=c1cc(-c2cc(O)c(O)c(O)c2)oc2cc(O)cc(O)c12 [YU155308, HIERACIN, reference compound]			40.7%		92.13	34.84	
